From patent US20250041460A1, “LANTHANIDE-BASED CONTRAST AGENTS HAVING IMPROVED STABILITY AND METHODS FOR THEIR PRODUCTION AND PURIFICATION” (Inventure, LLC, priority 2023, published 2025)

Experiment: Metastables test: challenge with cation exchange resin (Purolite C150), UV 274 nm peak
Assay type: physicochemical
Source text: FIGS. 3 and 4 show the relative and absolute stability of Applicant's disclosed TSA′ Gd Product as compared to two commercially available and frequently used MRI contrast agents Dotarem® and Clariscan®. The data shown in FIGS. 3 and 4 were obtained as follows. Exposing the product to a cation retaining resin, any free gadolinium ions in the sample are retained on the resin. Since the free gadolinium ions are continually removed, the equilibrium that would normally slow the decomposition of gadolinium DOTA metastable compounds is shifted toward decomposition. […] Gadolinium DOTA complex treated with xylenol orange has a characteristic peak at 274 nm in the ultraviolet spectrum. The amount of metastable gadolinium DOTA complex in the mixture can be inferred by measuring the decrease in this peak height with an ultraviolet spectrometer.
The test procedure used to obtain the foregoing results was as follows: • 1. Expose the resin to water for 24 hours. • 2. Measure the 274 nm peak height of the sample just prior to exposure to resin. This is the initial time point. • 3. Combine one equivalent of resin with one equivalent of the sample and agitate. • 4. […]
A metastable test is used to quantify ideal twisted square antiprismatic (TSA′) locked structures (TSA′ specification is greater than 99.5%). […]
The UV spectra for the time points were acquired over a range of 250-350 nm. The absorbance for the peak at 274 nm was corrected for changes in baseline by linearly interpolating the baseline from before and after the group of peaks around 274 nm (i.e., approximately from 270 to 280 nm) and subtracting the interpolated baseline value at 274 nm from the absorbance of the 274 nm peak maximum.
For the analysis of a time course experiment, it is useful to plot the corrected absorbances of the 274 nm peak as a percentage of the corrected absorbances of the 274 nm peak at the first time point versus time. […]

[1] = after resin purification process of Example 7

ideal TSA' cages [1]: 99.98% | non ideal (defective) cages [1]: 200 PPM | stability compared to Dotarem and Clariscan (FIGS. 3-5) (cation retaining resin, 274 nm peak height, up to 120 minutes): more stable
Compound: CNC[C@H](O)[C@@H](O)[C@H](O)[C@H](O)CO.O=C([O-])CN1CCN(CC(=O)[O-])CCN(CC(=O)O)CCN(CC(=O)[O-])CC1.[Gd+3] [TSA′ Gd Product, gadoterate meglumine]
